Consider one compound from US10662445B2, “Process for the production of bio-butanol by fermentation of glycosidic waste matter” (priority 2018, dated 2020).

A short description of data set [1]: Organic-solvent extraction of microbial inhibitors from an agro-waste hydrolysate mimic. Type of data set: physicochemical. To be noted: solvent bis-(2-ethylhexyl) sebacate. From the text:
Media composition was designed according to the inhibitory compound limit concentration reported in the literature for bio-butanol producing solventogenic Clostridia (Baral et al. Microbial inhibitors: formation and effects on acetone-butanol-ethanol fermentation of lignocellulosic biomass. Applied microbiology and biotechnology, Vol. 98(22), 2014: 9151-9172; Qureshi et al. Production of butanol (a biofuel) from agricultural residues: Part I—Use of barley straw hydrolysate. Biomass and bioenergy, Vol. 34(4), 2010: 559-565). Different volume ratio of the hydrolysate mimic and organic solvents, such as (5:1), (3:1), (2:1), (1:1) and (1:2) (vaqueous:vorganic) were tried in order to minimize extractant expenditure. Organic and aqueous phase mixing was carried out by a propeller impeller. Rotation rate (100, 200, 250, 300 and 400 rpm) and operation-time (15, 30, 45, 60 and 90 min) were tested at room temperature (25° C.). A comparative study between settling through separating funnel vs. centrifugal force assisted separation was also made to guarantee an optimal recovery of the broth phase.
A complex mixture of several reduced sugar compounds (e.g. as glucose, fructose, and xylose) and microbial inhibitors (furfural, HMF, acetic acid, levulinic acid, vanillin, vanillic acid, feluric acid and syringaldehyde) were produced during the pretreatment step (hydrolysis). In order to analyse these compounds, liquid samples were collected and analyzed using liquid chromatography-mass spectrometry (LC-MS) and liquid chromatography-tandem mass spectrometry (LC/MS-MS) equipped with a ZORBAX Carbohydrate column (5 μm, 150×4.6 mm ID column) (Agilent Technologies, USA) with D6 glucose as the internal standard and a Biobasic-18 column (5 μm, 250×4.6 mm ID) (Agilent Technologies, USA) with phenylethanol-D5 as the internal standard. […] Methanol water (8:2) and acetonitrile water (8.5:1.5) were used to dilute the sample before inhibitor and carbohydrate analysis. […]

For data set [2], the system named is solventogenic Clostridia (ABE fermentation). The following applies: cited from earlier work.
Data set [3] relates to cellulase enzyme. The following applies: cited from earlier work.
The mark [4] stands for this setting: homogenizer rotational speed 100 rpm.
[5] abbreviates: homogenizer rotational speed 200 rpm.
The mark [6] stands for this setting: homogenizer rotational speed 250 rpm.
[7] abbreviates: homogenizer rotational speed 300 rpm.
Where [8] appears, read: homogenizer rotational speed 400 rpm.

Bounds are passed on as bounds.

In the case of `COc1cc(C=O)cc(OC)c1O` [Syringaldehyde, syringaldehyde], the “Inhibitor extraction, phase separation by centrifugal force” value in data set [1] (setting [4]), in data set [1] (setting [5]), in data set [1] (setting [6]), in data set [1] (setting [7]) and in data set [1] (setting [8]) was 100% in each case. Also, the “Inhibitor extraction, phase separation by separating funnel” value in data set [1] (setting [4]), in data set [1] (setting [5]), in data set [1] (setting [6]), in data set [1] (setting [7]) and in data set [1] (setting [8]) was 100% in each case. In data set [2] (ABE fermentation), the Inhibitory concentration is on record as greater than 0.05 g/L. For the same compound, the “Concentration that stopped ABE production” value in data set [2] is on record as 2. (0.3-1.0 g/L) stopped ABE production. Moreover, the “Concentration showing strong inhibition on cellulase enzyme activity” value in data set [3] is on record as 1. (0.05 g/L) showed strong inhibition.
